molecular target: T1, Dehaloperoxidase B (Amphitrite ornata, UniProt Q9NAV7); assay: Resonance Raman Assay; conditions: pH 7
T1 sequence (Q9NAV7 whole entry): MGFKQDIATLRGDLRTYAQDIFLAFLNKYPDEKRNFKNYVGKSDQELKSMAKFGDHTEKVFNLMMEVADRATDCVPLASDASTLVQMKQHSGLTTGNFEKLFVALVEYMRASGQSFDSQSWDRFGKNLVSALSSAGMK
Experimental: Samples for solution resonance Raman spectroscopic studies were prepared withfinal concentrations of 75 μM WT DHP B and 3.75 mM azole in 100 mM KPi (pH 7 or 9) containing 10% MeOH (v/v) and then transferred to a 5 mm outside diameter glass NMR tube. Anaerobic samples were prepared inside a glovebox in the same fashion using septum-capped NMR tubes. Spectra were recorded by Soret band excitation (400−430 nm, 60 mW power) as previously described. [Barrios et al., J. Am. Chem. Soc., 136:7914-7925]

Compound | Kd [µM]
c1c[nH]cn1 | 52
1,2,3-benzotriazole::Benzotriazole (Bta) | 82
c1ccc2[nH]cnc2c1 [1H-1,3-benzodiazole] | 110
